Source: the NIST ThermoML archive (doi:10.1021/je200589f)
± gives the expanded uncertainty stated by the source.

Key:
[1] = for viscosity / mass density: 101.33 kPa, Liquid; for surface tension liquid-gas: Pendant drop shape; for mass density: Vibrating tube method
[2] = refractive index (Na D-line) (dimensionless); details: 101.33 kPa, Liquid, Standard Abbe refractometry

OCCCCCCn1cc[nH+]c1.[Cl-] [1-(6-hydroxyhexyl)imidazolium chloride]
Details	mass density, [1] [kg/m3]	refractive index, [2]	surface tension liquid-gas, [1] [mN/m]	viscosity, [1] [mPa·s]
293.15 K	–	1.5093 ± 0.0005	–	587.2 ± 59
298.15 K	–	1.508 ± 0.0005	51.25 ± 0.78	420 ± 36
303.15 K	1136.59 ± 1.1	1.5067 ± 0.0005	50.05 ± 0.77	320.1 ± 24
308.15 K	1133.52 ± 1.1	1.5054 ± 0.0005	48.85 ± 0.76	245.6 ± 16
313.15 K	1130.53 ± 1.1	1.5041 ± 0.0005	47.75 ± 0.75	180.5 ± 9.6
318.15 K	1127.58 ± 1.1	1.5028 ± 0.0005	46.4 ± 0.73	140.6 ± 6.1
323.15 K	1124.63 ± 1.1	1.5015 ± 0.0005	44.95 ± 0.72	110.4 ± 3.7
328.15 K	1121.67 ± 1.1	1.5002 ± 0.0005	–	91.4 ± 2.4
333.15 K	1118.72 ± 1.1	1.4989 ± 0.0005	–	72.6 ± 1.4
338.15 K	1115.77 ± 1.1	–	–	60.7 ± 1
343.15 K	1112.84 ± 1.1	–	–	48.9 ± 0.8
348.15 K	1109.92 ± 1.1	–	–	41.3 ± 0.7
353.15 K	1107.03 ± 1.1	–	–	35 ± 0.6

CCCCn1cc[n+](CCCCCCO)c1.[Cl-] [1-butyl-3-(6-hydroxyhexyl)-1H-imidazolium chloride]
Details	mass density, [1] [kg/m3]	refractive index, [2]	surface tension liquid-gas, [1] [mN/m]	viscosity, [1] [mPa·s]
293.15 K	–	1.5132 ± 0.0005	–	1489.7 ± 200
298.15 K	–	1.5119 ± 0.0005	32.05 ± 0.59	983.3 ± 120
303.15 K	1063.33 ± 0.97	1.5106 ± 0.0005	30.8 ± 0.58	707 ± 76
308.15 K	1060.6 ± 0.96	1.5093 ± 0.0005	29.65 ± 0.57	515.8 ± 49
313.15 K	1057.85 ± 0.96	1.508 ± 0.0005	28.35 ± 0.56	360.3 ± 29
318.15 K	1055.25 ± 0.95	1.5067 ± 0.0005	27.3 ± 0.55	271.5 ± 19
323.15 K	1052.52 ± 0.95	1.5054 ± 0.0005	25.9 ± 0.54	207.7 ± 12
328.15 K	1049.89 ± 0.94	1.5041 ± 0.0005	–	169.4 ± 8.6
333.15 K	1047.18 ± 0.93	1.5028 ± 0.0005	–	133 ± 5.5
338.15 K	1044.46 ± 0.93	–	–	110.8 ± 3.8
343.15 K	1041.73 ± 0.92	–	–	89.4 ± 2.3
348.15 K	1039.05 ± 0.92	–	–	76.1 ± 1.6
353.15 K	1036.32 ± 0.91	–	–	65.3 ± 1.1

CCn1cc[n+](CCCCCCO)c1.[Cl-] [1-ethyl-3-(6-hydroxyhexyl)-1H-imidazolium chloride]
Details	mass density, [1] [kg/m3]	refractive index, [2]	surface tension liquid-gas, [1] [mN/m]	viscosity, [1] [mPa·s]
293.15 K	–	1.5115 ± 0.0005	–	1348.1 ± 180
298.15 K	–	1.5102 ± 0.0005	42.32 ± 0.69	861.7 ± 100
303.15 K	1101.74 ± 1.1	1.5089 ± 0.0005	41.3 ± 0.68	604.5 ± 61
308.15 K	1098.91 ± 1	1.5076 ± 0.0005	39.95 ± 0.67	431.3 ± 38
313.15 K	1096.23 ± 1	1.5063 ± 0.0005	38.75 ± 0.66	294 ± 21
318.15 K	1093.53 ± 1	1.505 ± 0.0005	37.4 ± 0.64	217.7 ± 13
323.15 K	1090.95 ± 1	1.5037 ± 0.0005	36.25 ± 0.63	163.9 ± 8.1
328.15 K	1088.27 ± 1	1.5024 ± 0.0005	–	132.2 ± 5.4
333.15 K	1085.63 ± 1	1.5011 ± 0.0005	–	102.6 ± 3.2
338.15 K	1083.07 ± 1	–	–	84.7 ± 2.1
343.15 K	1080.43 ± 1	–	–	67.8 ± 1.2
348.15 K	1077.84 ± 1	–	–	57.4 ± 0.9
353.15 K	1075.27 ± 0.99	–	–	49.1 ± 0.8

Cn1cc[n+](CCCCCCO)c1.[Cl-] [3-(6-hydroxyhexyl)-1-methylimidazolium chloride]
Details	mass density, [1] [kg/m3]	refractive index, [2]	surface tension liquid-gas, [1] [mN/m]	viscosity, [1] [mPa·s]
293.15 K	–	1.5106 ± 0.0005	–	1025.9 ± 130
298.15 K	–	1.5093 ± 0.0005	49.95 ± 0.77	679.8 ± 72
303.15 K	1119.49 ± 1.1	1.508 ± 0.0005	48.75 ± 0.76	489.7 ± 46
308.15 K	1116.65 ± 1.1	1.5067 ± 0.0005	47.75 ± 0.75	357.6 ± 29
313.15 K	1113.91 ± 1.1	1.5054 ± 0.0005	46.65 ± 0.73	249.7 ± 16
318.15 K	1111.28 ± 1.1	1.5041 ± 0.0005	45.35 ± 0.72	188 ± 10
323.15 K	1108.63 ± 1.1	1.5028 ± 0.0005	43.95 ± 0.71	143.4 ± 6.3
328.15 K	1105.92 ± 1.1	1.5015 ± 0.0005	–	116.6 ± 4.2
333.15 K	1103.4 ± 1.1	1.5002 ± 0.0005	–	91.2 ± 2.4
338.15 K	1100.78 ± 1	–	–	75.7 ± 1.6
343.15 K	1098.14 ± 1	–	–	60.6 ± 1
348.15 K	1095.59 ± 1	–	–	51.3 ± 0.7
353.15 K	1092.92 ± 1	–	–	43.8 ± 0.7
